Experimental data as given in PubChem BioAssay AID1963434 (Molecular Pharmacology Branch, DTP, NCI, 2024).

System: 755483-174-R-J1-PDC complex spheroid growth, percent test/control
Assay: Anticancer human tumor 755483-174-R-J1-PDC patient-derived rhabdomyosarcoma cell line growth inhibition [Asc]
Settings: for IC50: curve of first compound; for viability, T/C: stronger effect = lower value
Summary of the method: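 Spheroid model: tumor line + HUVEC + hMSC. Single agents and combinations; top conc. at/near clinical Cmax (10 microM if undetermined), half-log dilutions. DMSO stocks at 800-fold test concentration.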

[1] = second compound 0.03 µM, first compound 0.00316 µM
[2] = second compound 0.03 µM, first compound 0.01 µM
[3] = second compound 0.03 µM, first compound 0.0316 µM
[4] = second compound 0.03 µM, first compound 0.1 µM
[5] = second compound 0.0949 µM, first compound 0.00316 µM
[6] = second compound 0.0949 µM, first compound 0.01 µM
[7] = second compound 0.0949 µM, first compound 0.0316 µM
[8] = second compound 0.0949 µM, first compound 0.1 µM
[9] = second compound 0.3 µM, first compound 0.00316 µM
[10] = second compound 0.3 µM, first compound 0.01 µM
[11] = second compound 0.3 µM, first compound 0.0316 µM
[12] = second compound 0.3 µM, first compound 0.1 µM
[13] = second compound 0.949 µM, first compound 0.00316 µM
[14] = second compound 0.949 µM, first compound 0.01 µM
[15] = second compound 0.949 µM, first compound 0.0316 µM
[16] = second compound 0.949 µM, first compound 0.1 µM
[17] = second compound 3 µM, first compound 0.00316 µM
[18] = second compound 3 µM, first compound 0.01 µM
[19] = second compound 3 µM, first compound 0.0316 µM
[20] = second compound 3 µM, first compound 0.1 µM
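Note: spheroids exposed to compounds for seven days before readout.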

## CCN1CCN(Cc2ccc(Nc3ncc(F)c(-c4cc(F)c5nc(C)n(C(C)C)c5c4)n3)nc2)CC1 + CCN1C(C(=O)NC23CCC(C(=O)O)(CC2)CC3)C(c2cccc(Cl)c2F)C2(C(=O)Nc3cc(Cl)ccc32)C12CCCCC2
Second compound 0.03 µM
  IC50: > 1000 nM
Second compound 0.0949 µM
  IC50: > 1000 nM
Second compound 0.3 µM
  IC50: > 1000 nM
Second compound 0.949 µM
  IC50: > 1000 nM
Second compound 3 µM
  IC50: > 1000 nM
[1]
  viability, T/C: 103%
[2]
  viability, T/C: 97.3%
[3]
  viability, T/C: 112%
[4]
  viability, T/C: 127%
Second compound 0.03 µM, first compound 0.316 µM
  viability, T/C: 108%
Second compound 0.03 µM, first compound 1 µM
  viability, T/C: 133%
[5]
  viability, T/C: 89.3%
[6]
  viability, T/C: 116%
[7]
  viability, T/C: 115%
[8]
  viability, T/C: 109%
Second compound 0.0949 µM, first compound 0.316 µM
  viability, T/C: 138%
Second compound 0.0949 µM, first compound 1 µM
  viability, T/C: 116%
[9]
  viability, T/C: 87%
[10]
  viability, T/C: 103%
[11]
  viability, T/C: 124%
[12]
  viability, T/C: 113%
Second compound 0.3 µM, first compound 0.316 µM
  viability, T/C: 124%
Second compound 0.3 µM, first compound 1 µM
  viability, T/C: 127%
[13]
  viability, T/C: 98.7%
[14]
  viability, T/C: 114%
[15]
  viability, T/C: 122%
[16]
  viability, T/C: 86.8%
Second compound 0.949 µM, first compound 0.316 µM
  viability, T/C: 129%
Second compound 0.949 µM, first compound 1 µM
  viability, T/C: 137%
[17]
  viability, T/C: 107%
[18]
  viability, T/C: 109%
[19]
  viability, T/C: 98.6%
[20]
  viability, T/C: 121%
Second compound 3 µM, first compound 0.316 µM
  viability, T/C: 126%
Second compound 3 µM, first compound 1 µM
  viability, T/C: 113%

## NC(=O)C(=Cn1cnc(-c2cc(C(F)(F)F)cc(C(F)(F)F)c2)n1)c1cncnc1 + CCN1C(C(=O)NC23CCC(C(=O)O)(CC2)CC3)C(c2cccc(Cl)c2F)C2(C(=O)Nc3cc(Cl)ccc32)C12CCCCC2
Second compound 0.03 µM
  IC50: 4.97 nM
Second compound 0.0949 µM
  IC50: 3.99 nM
Second compound 0.3 µM
  IC50: 6.47 nM
Second compound 0.949 µM
  IC50: 5.41 nM
Second compound 3 µM
  IC50: 3.15 nM
Second compound 0.03 µM, first compound 0.000949 µM
  viability, T/C: 92%
Second compound 0.03 µM, first compound 0.003 µM
  viability, T/C: 71.4%
Second compound 0.03 µM, first compound 0.00949 µM
  viability, T/C: 22.4%
Second compound 0.03 µM, first compound 0.03 µM
  viability, T/C: 12.8%
Second compound 0.03 µM, first compound 0.0949 µM
  viability, T/C: 7.75%
Second compound 0.03 µM, first compound 0.3 µM
  viability, T/C: 7.18%
Second compound 0.0949 µM, first compound 0.000949 µM
  viability, T/C: 84%
Second compound 0.0949 µM, first compound 0.003 µM
  viability, T/C: 56%
Second compound 0.0949 µM, first compound 0.00949 µM
  viability, T/C: 31.7%
Second compound 0.0949 µM, first compound 0.03 µM
  viability, T/C: 14.7%
Second compound 0.0949 µM, first compound 0.0949 µM
  viability, T/C: 8.83%
Second compound 0.0949 µM, first compound 0.3 µM
  viability, T/C: 5.38%
Second compound 0.3 µM, first compound 0.000949 µM
  viability, T/C: 74.2%
Second compound 0.3 µM, first compound 0.003 µM
  viability, T/C: 75.5%
Second compound 0.3 µM, first compound 0.00949 µM
  viability, T/C: 37.6%
Second compound 0.3 µM, first compound 0.03 µM
  viability, T/C: 13.3%
Second compound 0.3 µM, first compound 0.0949 µM
  viability, T/C: 7.32%
Second compound 0.3 µM, first compound 0.3 µM
  viability, T/C: 4.64%
Second compound 0.949 µM, first compound 0.000949 µM
  viability, T/C: 83.9%
Second compound 0.949 µM, first compound 0.003 µM
  viability, T/C: 66.7%
Second compound 0.949 µM, first compound 0.00949 µM
  viability, T/C: 34.4%
Second compound 0.949 µM, first compound 0.03 µM
  viability, T/C: 11.9%
Second compound 0.949 µM, first compound 0.0949 µM
  viability, T/C: 8.43%
Second compound 0.949 µM, first compound 0.3 µM
  viability, T/C: 5.55%
Second compound 3 µM, first compound 0.000949 µM
  viability, T/C: 72.8%
Second compound 3 µM, first compound 0.003 µM
  viability, T/C: 49.2%
Second compound 3 µM, first compound 0.00949 µM
  viability, T/C: 32.9%
Second compound 3 µM, first compound 0.03 µM
  viability, T/C: 16%
Second compound 3 µM, first compound 0.0949 µM
  viability, T/C: 5.81%
Second compound 3 µM, first compound 0.3 µM
  viability, T/C: 6.67%

## NC1CCC(NC2CC2c2ccccc2)CC1 (stereo not given) + CCN1C(C(=O)NC23CCC(C(=O)O)(CC2)CC3)C(c2cccc(Cl)c2F)C2(C(=O)Nc3cc(Cl)ccc32)C12CCCCC2
Second compound 0.03 µM
  IC50: > 100 nM
Second compound 0.0949 µM
  IC50: > 100 nM
Second compound 0.3 µM
  IC50: > 100 nM
Second compound 0.949 µM
  IC50: > 100 nM
Second compound 3 µM
  IC50: > 100 nM
Second compound 0.03 µM, first compound 0.000316 µM
  viability, T/C: 93.2%
Second compound 0.03 µM, first compound 0.001 µM
  viability, T/C: 67.1%
[1]
  viability, T/C: 129%
[2]
  viability, T/C: 77.7%
[3]
  viability, T/C: 87%
[4]
  viability, T/C: 65.3%
Second compound 0.0949 µM, first compound 0.000316 µM
  viability, T/C: 90%
Second compound 0.0949 µM, first compound 0.001 µM
  viability, T/C: 100%
[5]
  viability, T/C: 93.2%
[6]
  viability, T/C: 96.4%
[7]
  viability, T/C: 85.1%
[8]
  viability, T/C: 68.8%
Second compound 0.3 µM, first compound 0.000316 µM
  viability, T/C: 110%
Second compound 0.3 µM, first compound 0.001 µM
  viability, T/C: 105%
[9]
  viability, T/C: 112%
[10]
  viability, T/C: 87.3%
[11]
  viability, T/C: 95.1%
[12]
  viability, T/C: 112%
Second compound 0.949 µM, first compound 0.000316 µM
  viability, T/C: 108%
Second compound 0.949 µM, first compound 0.001 µM
  viability, T/C: 103%
[13]
  viability, T/C: 92%
[14]
  viability, T/C: 98.5%
[15]
  viability, T/C: 78.3%
[16]
  viability, T/C: 88.5%
Second compound 3 µM, first compound 0.000316 µM
  viability, T/C: 92.2%
Second compound 3 µM, first compound 0.001 µM
  viability, T/C: 94%
[17]
  viability, T/C: 90.2%
[18]
  viability, T/C: 61.6%
[19]
  viability, T/C: 86.6%
[20]
  viability, T/C: 88.5%
